Reference: patent EP0683169A1, “8-Amino-pyrido 1,2,3-de 1,3,4 benzoxadiazine derivatives, and antibacterial agents containing them” (BAYER AG, priority 1994, dated 1995)
Values after ≈ are worked out from the molar mass of the structure shown.

Legend:
Test in all cases: MIC (MHK) by agar serial dilution on Iso-Sensitest agar
Format in all cases: cell-based
[1] = tested on: Acinetobacter 14068; conditions: strain 14068, ca. 10⁴ colony-forming particles per spot, 37°C, ca. 20 h, read-out: MHK-Werte
From the text: (§1) Die minimalen Hemmkonzentrationen (MHK) der erfindungsgemäßen Verbindungen wurden per Reihenverdünnungsverfahren auf Iso-Sensitest Agar (Oxoid) bestimmt. Für jede Prüfsubstanz wurde eine Reihe von Agarplatten hergestellt, die bei jeweils doppelter Verdünnung abfallende Konzentrationen des Wirkstoffs enthielten. Die Agarplatten wurden mit einem Multipoint-Inokulator (Denley) beimpft. Zum Beimpfen wurden Übernachtkulturen der Erreger verwandt, die zuvor so verdünnt wurden, daß jeder Impfpunkt ca. 10⁴ koloniebildende Partikel enthielt. Die beimpften Agarplatten wurden bei 37°C bebrütet, und das Keimwachstum wurde nach ca. 20 Stunden abgelesen. Der MHK-Wert (µg/ml) gibt die niedrigste Wirkstoffkonzentration an, bei der mit bloßem Auge kein Wachstum zu erkennen war.
(§2) In der nachstehenden Tabelle sind die MHK-Werte einiger der erfindungsgemäßen Verbindungen aufgeführt. Tabelle

[2] = tested on: Klebsiella pneumoniae 8085; conditions: strain 8085, ca. 10⁴ colony-forming particles per spot, 37°C, ca. 20 h, read-out: MHK-Werte
From the text: as §1, §2

[3] = tested on: E. coli ATCC 25922; conditions: Escherichia coli, ATCC25922, strain ATCC 25922, ca. 10⁴ colony-forming particles per spot, 37°C, ca. 20 h, read-out: MHK-Werte
From the text: as §1, §2

[4] = tested on: E. coli Neumann; conditions: Escherichia coli, strain Neumann, ca. 10⁴ colony-forming particles per spot, 37°C, ca. 20 h, read-out: MHK-Werte
From the text: as §1, §2

[5] = tested on: Micrococcus luteus 9341; conditions: strain 9341, ca. 10⁴ colony-forming particles per spot, 37°C, ca. 20 h, read-out: MHK-Werte
From the text: as §1, §2

Q: How did the MIC [1] turn out when `CN1CCN(c2c(F)c(N)c3c(=O)c(C(=O)O)cn4c3c2OCN4C)CC1` [Beispiel 2, 8-Amino-9-fluor-3-methyl-10-(4-methyl-1-piperazinyl)-7-oxo-2,3-dihydro-7H-pyrido[1,2,3-d,e][1,3,4]benzoxadiazin-6-carbonsäure] was run?
A: 0.015 µg/mL (≈ 0.0397 µM)

Q: What about the MIC [2] of the same compound?
A: 0.06 µg/mL (≈ 0.159 µM)

Q: What about the MIC [3] of the same compound?
A: 0.015 µg/mL (≈ 0.0397 µM)

Q: What about the MIC [4] of the same compound?
A: 0.015 µg/mL (≈ 0.0397 µM)

Q: And the MIC [5]?
A: 0.015 µg/mL (≈ 0.0397 µM)

Q: Which results are given for `CC1CN(c2c(F)c(N)c3c(=O)c(C(=O)O)cn4c3c2OCN4C)CCN1` (centres unmarked) [Beispiel 3, 8-Amino-9-fluor-3-methyl-10-(3-methyl-1-piperazinyl)-7-oxo-2,3-dihydro-7H-pyrido[1,2,3-d,e][1,3,4]benzoxadiazin-6-carbonsäure]?
A: MIC [1]: 0.015 µg/mL (≈ 0.0397 µM); MIC [2]: 0.12 µg/mL (≈ 0.318 µM); MIC [3]: 0.06 µg/mL (≈ 0.159 µM); MIC [4]: 0.06 µg/mL (≈ 0.159 µM); MIC [5]: 0.015 µg/mL (≈ 0.0397 µM)

Q: What does the source list for `CN1COc2c(N3CCC(O)C3)c(F)c(N)c3c(=O)c(C(=O)O)cn1c23` (centres unmarked) [Beispiel 5, 8-Amino-9-fluor-3-methyl-10-(3-hydroxy-1-pyrrolidinyl)-7-oxo-2,3-dihydro-7H-pyrido[1,2,3-d,e][1,3,4]benzoxadiazin-6-carbonsäure]?
A: MIC [1]: 0.015 µg/mL (≈ 0.0412 µM); MIC [2]: 0.25 µg/mL (≈ 0.686 µM); MIC [3]: 0.03 µg/mL (≈ 0.0823 µM); MIC [4]: 0.015 µg/mL (≈ 0.0412 µM); MIC [5]: 0.015 µg/mL (≈ 0.0412 µM)

Q: Which results are given for `CN1C[C@@H]2C[C@H]1CN2c1c(F)c(N)c2c(=O)c(C(=O)O)cn3c2c1OCN3C` [Beispiel 10]?
A: MIC [1]: 0.015 µg/mL (≈ 0.0385 µM); MIC [2]: 0.12 µg/mL (≈ 0.308 µM); MIC [3]: 0.06 µg/mL (≈ 0.154 µM); MIC [4]: 0.06 µg/mL (≈ 0.154 µM); MIC [5]: 0.015 µg/mL (≈ 0.0385 µM)
